The values below come from US9512175B2, “Macrocyclic inhibitors of flaviviridae viruses” (Gilead Sciences, Inc., priority 2012, dated 2016).

The conditions of data set [1]: from C=CCC(=O)N[C@H](C(=O)N[C@@H](C)C(=O)N1CCC[C@@H](C(=O)N[C@H](C)c2ccc3cnc(C=C)cc3c2)N1)C(C)C; rcm bond; 21-membered ring; Hoveyda-Grubbs II (2 x 10 mol%); toluene; 3.86 mM.
The next data set concerns the target cyclophilin A (Homo sapiens, UniProt P62937). In words: Cyclophilin A TR-FRET competitive binding assay. The following applies: IC50 ranges; competition with CsA-Cy5 for His-tagged CypA, two-hour incubation; read-out: TR-FRET. On the procedure:
Cyclophilin A TR-FRET Competitive Binding Assay
Inhibitor potency was measured using a competitive binding assay with a time-resolved fluorescence resonance energy transfer (TR-FRET) readout. […] An IC50 value was calculated using a four-parameter logistic fit.
On the technique in general: TR-FRET usually uses a lanthanide donor and a delayed reading to cut background.

For data set [2], the system named is HCV replicon (Replicon 1a). In words: anti-HCV activity in Huh-7 cell line harboring a HCV replicon (Replicon 1a). The data set is classed as cell-based. The following applies: for inhibition at 1 µM: Hepatitis C virus, Huh-7, 72 h. (In general: In antiviral work, replicon cells carry a viral genome segment that copies itself.)
[3] abbreviates: read-out: Replicon 1a % inhibition at 1 μM.
[4] abbreviates: read-out: Replicon 1a % inhibition at 1 μM, 1 μM, human hepatoma Huh-7 HCV replicon cells, 3 days, luciferase readout.

SMILES strings stand for the structures. pIC50: −log10 of the molar value. Like-named read-outs stand apart in the source and are kept apart here.

cyclophilin A, sequence (P62937 whole entry, species assumed): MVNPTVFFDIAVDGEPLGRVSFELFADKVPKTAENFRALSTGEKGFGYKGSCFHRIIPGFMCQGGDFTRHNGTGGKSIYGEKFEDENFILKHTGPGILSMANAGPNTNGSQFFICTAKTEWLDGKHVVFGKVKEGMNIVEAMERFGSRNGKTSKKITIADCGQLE

Compound `CC(C)[C@@H]1NC(=O)CC=Cc2cc3cc(ccc3cn2)[C@@H](C)NC(=O)[C@@H]2CCCN(N2)C(=O)[C@H](C)NC1=O` had a ring closure, isolated yield in data set [1] of 1%.
The term inhibition denotes the drop in the measured response relative to a control, in per cent. Consider `CC(C)[C@@H]1NC(=O)C2(/C=C/c3ccc4ccc(nc4c3)[C@@H](C)OC(=O)[C@@H]3CCCN(N3)C(=O)[C@H](C)NC1=O)CCN(CC#N)CC2` [Compound 131], for which the pIC50 at cyclophilin A was above 7.00. Further, the inhibition at 1 µM in data set [2] (setting [3]) worked out at 77%.
The corresponding values for `COC(=O)N1CCC2(/C=C/c3ccc4ccc(nc4c3)[C@@H](C)OC(=O)[C@@H]3CCCN(N3)C(=O)[C@H](C)NC(=O)[C@H](C(C)C)NC2=O)CC1` [Compound 132] are above 7.00 and 100%.
On to `CC(C)[C@@H]1NC(=O)C2(/C=C/c3ccc4ccc(nc4c3)[C@@H](C)OC(=O)[C@@H]3CCCN(N3)C(=O)[C@H](C)NC1=O)CCN(C(=O)N1CCCC1)CC2` [Compound 133], for which the pIC50 at cyclophilin A is above 7.00. Further, in data set [2] (setting [4]), the inhibition at 1 µM turned out to be 98%.
Turning to `CC(C)[C@@H]1NC(=O)C2(/C=C/c3ccc4ccc(nc4c3)[C@@H](C)OC(=O)[C@@H]3CCCN(N3)C(=O)[C@H](C)NC1=O)CCN(S(=O)(=O)CC1CC1)CC2` [Compound 134], at cyclophilin A, the pIC50 is above 7.00. The inhibition at 1 µM in data set [2] (setting [4]) worked out at 99%.
With `CC(=O)N1CCC2(/C=C/c3ccc4ccc(nc4c3)[C@@H](C)OC(=O)[C@@H]3CCCN(N3)C(=O)[C@H](C)NC(=O)[C@H](C(C)C)NC2=O)CC1` [Compound 135], the pIC50 on cyclophilin A was above 7.00. For the same compound, the inhibition at 1 µM in data set [2] (setting [4]) was found to be 94%.
Take `CC(C)[C@@H]1NC(=O)C2(/C=C/c3ccc4ccc(nc4c3)[C@@H](C)OC(=O)[C@@H]3CCCN(N3)C(=O)[C@H](C)NC1=O)CCN(CC(F)(F)F)CC2` [Compound 136]: the pIC50 on cyclophilin A was above 7.00. Besides, the inhibition at 1 µM in data set [2] (setting [4]) is 100%.
With `COCc1cc2ccc3cc2nc1[C@@H](C)OC(=O)[C@@H]1CCCN(N1)C(=O)[C@H](C)NC(=O)[C@H](C(C)C)NC(=O)C(C)(C)/C=C/3` [Compound 137], on cyclophilin A, the pIC50 is above 7.00. The inhibition at 1 µM in data set [2] (setting [4]) turned out to be 100%.
For `CC(C)[C@@H]1NC(=O)C(C)(C)/C=C/c2ccc3c(Cl)cc(nc3c2)[C@@H](C)OC(=O)[C@@H]2CCCN(N2)C(=O)[C@H](C)NC1=O` [Compound 138], the pIC50 on cyclophilin A was above 7.00. Further, in data set [2] (setting [4]), the inhibition at 1 µM came out at 100%.
The corresponding values for `CC1NC(=O)C(C(C)C)NC(=O)C(C)(C)/C=C/c2ccc3c(C#N)cc(nc3c2)C(C)OC(=O)C2CCCN(N2)C1=O` (stereo not shown) [Compound 141] are above 7.00 and 99%.
The corresponding values for `CC(C)[C@@H]1NC(=O)C(C)(C)/C=C/c2ccc3ccc(cc3c2)[C@@H](C)OC(=O)[C@@H]2CCCN(N2)C(=O)[C@H](C)NC1=O` [Compound 142] are above 7.00 and 99%.
In the same order, the values of `CC(C)[C@@H]1NC(=O)C(C)(C)/C=C/c2cc3cc(ccc3cn2)[C@@H](C)NC(=O)[C@@H]2CCCN(N2)C(=O)[C@H](C)NC1=O` [Compound 143] are above 7.00 and 31%.
Turning to `Cc1cc2nc3cc(ccc13)/C=C/C(C)(C)C(=O)N[C@@H](C(C)C)C(=O)N[C@@H](C)C(=O)N1CCC[C@H](N1)C(=O)O[C@@H]2C` [Compound 144], the pIC50 on cyclophilin A was above 7.00. Further, the inhibition at 1 µM in data set [2] (setting [4]) was 100%.
For the compound `CC(C)[C@@H]1NC(=O)C(C)(C)/C=C/c2ccc3c(=O)[nH]c(nc3c2)[C@@H](C)OC(=O)C2CCCN(N2)C(=O)[C@@H](C)NC1=O` (stereo partly shown) [Compound 146], at cyclophilin A, the pIC50 was above 7.00. Moreover, the inhibition at 1 µM in data set [2] (setting [4]) was determined as 24%.
The corresponding values for `CC(C)[C@@H]1NC(=O)C(C)(C)/C=C/c2ccc3c(=O)n(C)c(nc3c2)[C@@H](C)OC(=O)C2CCCN(N2)C(=O)[C@@H](C)NC1=O` (stereo partly shown) [Compound 147] are above 7.00 and 94%.
The corresponding values for `Cc1cc2cc3nc(ccc13)[C@@H](C)OC(=O)C1CCCN(N1)C(=O)[C@@H](C)NC(=O)[C@H](C(C)C)NC(=O)C(C)(C)/C=C/2` (stereo partly shown) [Compound 148] are above 7.00 and 100%.
The corresponding values for `CO[C@@H](C)[C@H]1/C=C/c2ccc3ccc(nc3c2)[C@@H](C)OC(=O)[C@@H]2CCCN(N2)C(=O)[C@@H](C)NC(=O)[C@H](C(C)C)NC1=O` [Compound 149] are above 7.00 and 99%.
For the compound `CC(C)[C@@H]1NC(=O)C2(/C=C/c3ccc4ccc(nc4c3)[C@@H](C)OC(=O)[C@@H]3CCCN(N3)C(=O)[C@H](C)NC1=O)CC2` [Compound 152], the pIC50 at cyclophilin A was above 7.00. Besides, in data set [2] (setting [4]), the inhibition at 1 µM was found to be 100%.
The corresponding values for `CC(C)[C@@H]1NC(=O)C2(/C=C/c3ccc4ccc(nc4c3)[C@@H](C)OC(=O)[C@@H]3CCCN(N3)C(=O)[C@H](C)NC1=O)CCOCC2` [Compound 153] are above 7.00 and 100%.
In the same order, the values of `CC(C)[C@@H]1NC(=O)C2(/C=C/c3ccc4ccc(nc4c3)[C@@H](C)OC(=O)[C@@H]3CCCN(N3)C(=O)[C@H](C)NC1=O)CCCC2` [Compound 154] are above 7.00 and 100%.
In the same order, the values of `CC(C)[C@@H]1NC(=O)[C@@]2(/C=C/c3ccc4ccc(nc4c3)[C@@H](C)OC(=O)[C@@H]3CCCN(N3)C(=O)[C@H](C)NC1=O)CCCN2C(=O)OC(C)(C)C` [Compound 155] are above 7.00 and 100%.
On to `CC(C)[C@@H]1NC(=O)[C@@]2(/C=C/c3ccc4ccc(nc4c3)[C@@H](C)OC(=O)[C@@H]3CCCN(N3)C(=O)[C@H](C)NC1=O)CCCN2S(C)(=O)=O` [Compound 156], for which the pIC50 at cyclophilin A was above 7.00. The inhibition at 1 µM in data set [2] (setting [4]) came out at 87%.
In the same order, the values of `CC(C)[C@@H]1NC(=O)[C@]2(/C=C/c3ccc4ccc(nc4c3)[C@@H](C)OC(=O)[C@@H]3CCCN(N3)C(=O)[C@H](C)NC1=O)CC[C@H](O)CC2` [Compound 158] are above 7.00 and 100%.
The corresponding values for `CC(C)[C@@H]1NC(=O)[C@]2(/C=C/c3ccc4ccc(nc4c3)[C@@H](C)OC(=O)[C@@H]3CCCN(N3)C(=O)[C@H](C)NC1=O)CC[C@@H](O)CC2` [Compound 160] are above 7.00 and 98%.
Turning to `CC(C)[C@@H]1NC(=O)[C@]2(CCc3ccc4ccc(nc4c3)[C@@H](C)OC(=O)[C@@H]3CCCN(N3)C(=O)[C@H](C)NC1=O)CC[C@H](O)CC2` [Compound 161], the pIC50 on cyclophilin A is above 7.00. Moreover, the “Replicon 1a % inhibition at 1 μM” value in data set [2] is reported as 95%.
As to `Cc1cc2ccc(/C=C/C(C)(C)C(=O)N[C@H](C(=O)N[C@@H](C)C(=O)N3CCC[C@@H](C(=O)O)N3)C(C)C)cc2nc1[C@@H](C)O` [Compound 162], the pIC50 on cyclophilin A was 5.00 to 6.00. Moreover, the inhibition at 1 µM in data set [2] (setting [4]) stood at 0%.
The corresponding values for `Cc1cc2ccc3cc2nc1[C@@H](C)OC(=O)[C@@H]1CCCN(N1)C(=O)[C@H](C)NC(=O)[C@H](C(C)C)NC(=O)C(C)(C)/C=C/3` [Compound 163] are above 7.00 and 100%.
In the same order, the values of `CC(C)C(=O)O[C@@H](C)[C@H]1/C=C/c2ccc3ccc(nc3c2)[C@@H](C)OC(=O)[C@@H]2CCCN(N2)C(=O)[C@H](C)NC(=O)[C@H](C(C)C)NC1=O` [Compound 165] are above 7.00 and 100%.
In the same order, the values of `CC(C)[C@H](NC(=O)[C@H](/C=C/c1ccc2ccc([C@@H](C)O)nc2c1)[C@H](C)O)C(=O)N[C@@H](C)C(=O)N1CCC[C@@H](C(=O)O)N1` [Compound 166] are 5.00 to 6.00 and 0%.
For `CC(C)[C@H](N)C(=O)O[C@@H](C)[C@H]1/C=C/c2ccc3ccc(nc3c2)[C@@H](C)OC(=O)[C@@H]2CCCN(N2)C(=O)[C@H](C)NC(=O)[C@H](C(C)C)NC1=O` [Compound 167], at cyclophilin A, the pIC50 was above 7.00. Further, in data set [2] (setting [4]), the inhibition at 1 µM is 97%.
The corresponding values for `CC(C)OC(=O)OCO[C@@H](C)[C@H]1/C=C/c2ccc3ccc(nc3c2)[C@@H](C)OC(=O)[C@@H]2CCCN(N2)C(=O)[C@H](C)NC(=O)[C@H](C(C)C)NC1=O` [Compound 168] are above 7.00 and 100%.
In the same order, the values of `CC(C)[C@@H]1NC(=O)C(C)(C)/C=C/c2ccc3ccc(nc3c2F)[C@@H](C)OC(=O)[C@@H]2CCCN(N2)C(=O)[C@H](C)NC1=O` [Compound 170] are above 7.00 and 100%.
For the compound `CC(=O)O[C@@H](C)[C@H]1/C=C/c2ccc3ccc(nc3c2)[C@@H](C)OC(=O)[C@@H]2CCCN(N2)C(=O)[C@H](C)NC(=O)[C@H](C(C)C)NC1=O` [Compound 171], the pIC50 on cyclophilin A is above 7.00. Besides, the inhibition at 1 µM in data set [2] (setting [4]) is 99%.
Regarding `CCCC(=O)O[C@@H](C)[C@H]1/C=C/c2ccc3ccc(nc3c2)[C@@H](C)OC(=O)[C@@H]2CCCN(N2)C(=O)[C@H](C)NC(=O)[C@H](C(C)C)NC1=O` [Compound 172], the pIC50 on cyclophilin A was above 7.00. The inhibition at 1 µM in data set [2] (setting [4]) worked out at 100%.
The corresponding values for `CC(C)[C@@H]1NC(=O)[C@]2(/C=C/c3ccc4ccc(nc4c3)[C@@H](C)OC(=O)[C@@H]3CCCN(N3)C(=O)[C@H](C)NC1=O)CC[C@@](C)(O)CC2` [Compound 173] are above 7.00 and 99%.
With `CC(C)[C@@H]1NC(=O)[C@]2(/C=C/c3ccc4ccc(nc4c3)[C@@H](C)OC(=O)[C@@H]3CCCN(N3)C(=O)[C@H](C)NC1=O)CC[C@](C)(O)CC2` [Compound 174], the pIC50 at cyclophilin A is above 7.00. Also, the inhibition at 1 µM in data set [2] (setting [4]) came out at 99%.
As for `Cc1cc2ccc3cc2nc1[C@@H](C)NC(=O)[C@@H]1CCCN(N1)C(=O)[C@H](C)NC(=O)[C@H](C(C)C)NC(=O)C(C)(C)/C=C/3` [Compound 175], the pIC50 at cyclophilin A is above 7.00. Moreover, the inhibition at 1 µM in data set [2] (setting [4]) worked out at 85%.
